# Counter-ions that a name gives are not always drawn. Where a SMILES comes first, the peptide text is derived from it. The star is where a group is joined. Cbz = O=C(OCc1ccccc1)*
# Target: T1, human A3AR (Homo sapiens, UniProt P0DMS8)
# T1 construct: expressed in transfected cells
# T1 sequence (P0DMS8 1-318): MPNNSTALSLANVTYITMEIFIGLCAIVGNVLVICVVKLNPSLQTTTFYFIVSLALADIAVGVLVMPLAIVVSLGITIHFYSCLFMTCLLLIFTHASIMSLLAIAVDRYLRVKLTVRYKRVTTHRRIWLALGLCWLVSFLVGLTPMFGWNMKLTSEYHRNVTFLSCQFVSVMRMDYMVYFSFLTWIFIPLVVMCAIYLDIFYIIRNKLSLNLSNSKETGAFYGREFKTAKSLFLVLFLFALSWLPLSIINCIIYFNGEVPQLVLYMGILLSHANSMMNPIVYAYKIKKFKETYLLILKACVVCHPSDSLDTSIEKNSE
# Test: LOPAC library primary screen: single concentration (10 μM) inhibition of 25 nM CA200645 binding, PHERAstar FS
# Settings: not given
row,Compound,% 25 nM CA200645 binding [%]
1,CC(=O)OCC1=C(C(=O)[O-])N2C(=O)[C@@H](NC(=O)CCC[C@@H](N)C(=O)[O-])[C@H]2SC1.[Zn+2] [Cephalosporin C zinc salt],86.9 ± 28.2
2,CC(CCc1ccc(O)cc1)NCCc1ccc(O)c(O)c1 (stereo not drawn) [Dobutamine hydrochloride],101.9 ± 15.9
3,CCN(CC)CCNC(=O)c1cc(Cl)c(N)cc1OC.Cl [Metoclopramide hydrochloride],106.5 ± 2.9
4,CC(N/C(=N\C#N)Nc1ccncc1)C(C)(C)C (stereo not drawn) [Pinacidil],105.1 ± 8.3
5,COC(=O)[C@H](NC(=O)c1cc(-c2ccccc2)nc2ccccc12)c1ccccc1 [SB 218795],51.1 ± 8.4
6,COC1(C2=NCCN2)COc2ccccc2O1.Cl (stereo not drawn) [RX 821002 hydrochloride],101.0 ± 17.5
7,O=[N+]([O-])/C=C/c1ccc2c(c1)OCO2 [MNS],50.1 ± 14.8
8,CC1=C(/C=C/C(C)=C/C=C/C(C)=C/C(=O)O)C(C)(C)CCC1 [Retinoic acid],93.6 ± 14.4
9,CN(C)c1ccc(O)c2c1C[C@H]1C[C@H]3[C@H](N(C)C)C(O)=C(C(N)=O)C(=O)[C@@]3(O)C(O)=C1C2=O [Minocycline hydrochloride],101.7 ± 17.9
10,COc1ccccc1OCCNCC(O)COc1cccc2[nH]c3ccccc3c12 (stereo not drawn) [Carvedilol],100.8 ± 14.2
11,COc1cccc(NC(=O)/C=C/c2ccc(Cl)cc2)c1 [SB-366791],92.0 ± 7.1
12,CN(C)c1cc2c(Nc3ccc4c(cnn4Cc4ccccc4)c3)ncnc2cn1 [GW2974],57.3 ± 11.9
13,CCCCNC(=O)NS(=O)(=O)c1ccc(C)cc1 [Tolbutamide],101.8 ± 7.4
14,CC(=O)c1ccc(S(=O)(=O)NC(=O)NC2CCCCC2)cc1 [Acetohexamide],101.4 ± 13.1
15,C[C@H](O)[C@H](O)[C@H]1CNc2nc(N)[nH]c(=O)c2N1.Cl,101.6 ± 17.7
16,CCCN1C[C@H](CSC)C[C@@H]2c3cccc4[nH]cc(c34)C[C@H]21 [Pergolide methanesulfonate],82.8 ± 15.4
17,CCC1(c2ccccc2)C(=O)NCNC1=O [Primidone],96.1 ± 4.9
18,CCCNC(=O)NS(=O)(=O)c1ccc(Cl)cc1 [Chlorpropamide],97.6 ± 7.8
19,O=[N+]([O-])c1ccc(CSc2ncnc3c2ncn3[C@@H]2O[C@H](CO)[C@@H](O)[C@H]2O)cc1 [S-(4-Nitrobenzyl)-6-thioinosine],95.1 ± 33.3
20,COc1cc(N)c(Cl)cc1C(=O)OCCN1CCCCC1 [ML 10302],105.8 ± 6.4
21,COc1ccc(Cl)cc1C(=O)NCCc1ccc(S(=O)(=O)NC(=O)NC2CCCCC2)cc1 [Glybenclamide],92.8 ± 16.7
22,Cl.N[C@@H](Cc1cnc[nH]1)C(=O)O [L-Histidine hydrochloride],100.4 ± 6.4

row,Compound,% 25 nM CA200645 binding [%]
1,C=C[C@@]1(C)CC(=O)[C@]2(O)[C@@]3(C)[C@@H](O)CCC(C)(C)[C@@H]3[C@H](O)[C@H](OC(C)=O)[C@@]2(C)O1 [Forskolin],100.9 ± 7.2
2,O=C(N[C@@H](Cc1ccccc1)C(=O)CCl)OCc1ccccc1 [Z-L-Phe chloromethyl ketone],100.8 ± 7.1
3,CN(C)CCOC(C)(c1ccccc1)c1ccccn1 (stereo not drawn) [Doxylamine succinate],107.4 ± 0.7
4,CCCCCCCCCCCCCCCCCC(=O)OC(CC(=O)O)C[N+](C)(C)C.[Cl-] (racemic) [DL-Stearoylcarnitine chloride],44.2 ± 6.0
5,CC(C)[C@H](NC(=O)OCc1ccccc1)C(=O)N[C@H](C=O)Cc1ccccc1 [MDL 28170] (Cbz-Val-Phe-aldehyde),96.0 ± 2.8
6,Cl.Clc1cc(I)cc(Cl)c1NC1=NCCN1 [p-Iodoclonidine hydrochloride],77.2 ± 42.2
7,Cc1[nH]c2ccc(O)cc2c1CCN.O=C(O)/C=C\C(=O)O [2-Methyl-5-hydroxytryptamine maleate],104.7 ± 14.7
8,CCC(=O)N1CCN(C(=O)c2ccccc2)CC1 [DM 235],105.1 ± 10.7
9,CNCCCC1c2ccccc2C=Cc2ccccc21 [Protriptyline hydrochloride],101.6 ± 7.3
10,COc1cc(NS(C)(=O)=O)ccc1Nc1c2ccccc2nc2ccccc12 [Amsacrine hydrochloride],99.8 ± 8.3
11,Cl.NCC(O)c1ccc(O)cc1 (racemic) [(±)-Octopamine hydrochloride],103.0 ± 1.6
12,Cc1nc(N=Nc2ccc(C(=O)O)cc2)c(COP(=O)(O)O)c(C=O)c1O [MRS 2159],83.0 ± 11.6
13,NC(CO)(CO)CO.O=C(c1ccccc1)c1ccc2n1CCC2C(=O)O (stereo not drawn) [Ketorolac tris salt],93.7 ± 13.0
14,CC(=O)NCCc1c[nH]c2ccc(O)cc12 [N-Acetyl-5-hydroxytryptamine],100.5 ± 7.6
15,COCCOc1cc2nc[nH]c(=O)c2cc1OCCOC [CP-380736],88.0 ± 4.4
16,C[C@H]1CCC/C=C/[C@@H]2C[C@H](O)C[C@H]2[C@H](O)/C=C/C(=O)O1,87.5 ± 5.2
17,COCC(=O)O[C@]1(CCN(C)CCCc2nc3ccccc3[nH]2)CCc2cc(F)ccc2[C@@H]1C(C)C [Mibefradil dihydrochloride],107.6 ± 26.6
18,NCCCCN [Putrescine dihydrochloride],106.2 ± 11.7
19,NC/C=C\C(=O)O [cis-4-Aminocrotonic acid],103.0 ± 10.1
20,CN1CCC(=C2c3ccccc3C=Cc3ccccc32)CC1 [Cyproheptadine hydrochloride],96.0 ± 5.5
21,CCN(CC)CCNC(=O)c1cc(S(C)(=O)=O)ccc1OC [Tiapride hydrochloride],98.9 ± 15.2
22,COc1ccc(NC=O)c(C(=O)CCNC(C)=O)c1 [AFMK],100.0 ± 2.7

row,Compound,% 25 nM CA200645 binding [%]
1,O=C(O)c1cc(O)cc(C(=O)O)n1 [Chelidamic acid],110.2 ± 8.8
2,"CC(=O)C(C)=O [2,3-Butanedione]",101.3 ± 15.0
3,C[N+](C)(C)CC=O [Betaine aldehyde chloride],95.0 ± 5.8
4,S-Nitroso-N-acetylpenicillamine,127.5 ± 10.1
5,O=C(Nc1nc2ccccc2n1CCN1CCOCC1)c1cccc([N+](=O)[O-])c1 [IRAK-1/4 Inhibitor I],61.3 ± 9.4
6,CCN(CC)CCOc1ccc(Nc2ncc3cc(-c4c(Cl)cccc4Cl)c(=O)n(C)c3n2)cc1.O [PD-166285 hydrate],108.1 ± 4.5
7,COC(=O)[C@H]1[C@H]2C[C@H]3c4[nH]c5ccccc5c4CCN3C[C@H]2CC[C@@H]1O [Rauwolscine hydrochloride],96.5 ± 8.7
8,OCCN1CCN(CCCN2c3ccccc3Sc3ccc(C(F)(F)F)cc32)CC1 [Fluphenazine dihydrochloride],98.1 ± 12.0
9,CC(C)[N+]1(C)[C@@H]2CC[C@H]1C[C@@H](OC(=O)C(CO)c1ccccc1)C2 (stereo partly drawn) [Ipratropium bromide],106.7 ± 26.2
10,CC[C@@H]1C(=O)OC[C@@H]1Cc1cncn1C [Pilocarpine nitrate],92.9 ± 2.4
11,"C[C@H](Cc1ccc2c(c1)OC(C(=O)[O-])(C(=O)[O-])O2)NC[C@H](O)c1cccc(Cl)c1.[Na+].[Na+] [CL 316,243]",38.7 ± 18.1
12,O=C(O)CCC(=O)O.c1ccc(C2(c3ccccc3)CC2C2=NCCN2)cc1 (stereo not drawn) [Cibenzoline succinate],95.2 ± 7.2
13,c1ccc2c(c1)[I+]c1ccccc1-2 [Diphenyleneiodonium chloride],92.7 ± 5.6
14,O=C(O)CC[N+](=O)[O-] [3-Nitropropionic acid],111.3 ± 13.2
15,Nn1nnc2ccccc21 [1-Aminobenzotriazole],83.5 ± 18.8
16,CC[C@]1(O)C[C@@H]2CN(CCc3c([nH]c4ccccc34)[C@@](C(=O)OC)(c3cc4c(cc3OC)N(C)[C@H]3[C@@](O)(C(=O)OC)[C@H](OC(C)=O)[C@]5(CC)C=CCN6CC[C@]43[C@@H]65)C2)C1.O=S(=O)(O)O [Vinblastine sulfate salt],98.2 ± 16.0
17,N[C@@H](CC(=O)O)C(=O)O [L-Aspartic acid],99.3 ± 3.7
18,CC(C)[N+](C)(CCOC(=O)C1c2ccccc2Oc2ccccc21)C(C)C [Propantheline bromide],95.5 ± 4.8
19,CN(CCCOc1ccc(Cc2ccccc2)cc1)CCC(=O)O.Cl [SC-57461A],83.2 ± 13.1
20,"LY-367,265",64.8 ± 25.8
21,CN1CCN(CCCN2c3ccccc3Sc3ccc(Cl)cc32)CC1 [Prochlorperazine dimaleate],90.4 ± 18.3

# Same assay, conditions: % of control wells (1% DMSO and 25 nM CA200645); compounds at 10 µM; whole live cells expressing the A3AR; mean ± SD, three experiments in duplicate
row,Compound,% 25 nM CA200645 binding [%]
1,Cc1nc2ccccn2c(=O)c1CCN1CCC(C(=O)c2ccc(F)cc2)CC1 [Pirenperone],88.6 ± 5.4
2,NC(=O)CC[C@H](N)C(=O)O [L-Glutamine],99.9 ± 14.1

# Same assay, conditions: compounds tested at 10 µM; % of control wells (1% DMSO and 25 nM CA200645); […]; mean ± SD, three experiments in duplicate
row,Compound,% 25 nM CA200645 binding [%]
1,Cl.O=C(O)C1CCCN(CCC=C(c2ccccc2)c2ccccc2)C1 (stereo not drawn) [SKF 89976A hydrochloride],95.9 ± 25.1

# Same assay, conditions: compounds tested at 10 µM; % of control wells (1% DMSO and 25 nM CA200645); whole live cells expressing the A3AR; mean ± SD, three experiments in duplicate
row,Compound,% 25 nM CA200645 binding [%]
1,CCNC(=O)N1CCN(CCCC(c2ccc(F)cc2)c2ccc(F)cc2)CC1 [Amperozide hydrochloride],92.9 ± 0.6

# Source: paper PMC5733478, “A Non-imaging High Throughput Approach to Chemical Library Screening at the Unmodified Adenosine-A3 Receptor in Living Cells” (Frontiers in Pharmacology, 2017)
